Reference: ChEMBL document CHEMBL4130586, “Antiprotozoal Sesquiterpene Lactones and Other Constituents from Tarchonanthus camphoratus and Schkuhria pinnata” (J Nat Prod, 2018)

Tests used:
[1] = Selectivity index, ratio of IC50 for rat L6 cells to IC50 for Trypanosoma brucei rhodesiense STIB 900 bloodstream forms; assay type: toxicity; settings: read-out: Ratio IC50
[2] = tested on: Trypanosoma brucei rhodesiense; assay: Antitrypanosomal activity against Trypanosoma brucei rhodesiense STIB 900 bloodstream forms after 72 hrs by alamar blue staining based fluorescence assay; assay type: functional, organism-based; settings: STIB 900, 72 h
[3] = tested on: L6; assay: Cytotoxicity against rat L6 cells after 72 hrs by alamar blue staining based fluorescence assay; assay type: cell-based; settings: L6, 72 h

Compound | IC50 [2] [µM] | selectivity ratio [1] | IC50 [3] [µM]
C=C1C(=O)O[C@@H]2/C=C(\C)CC/C=C(\C)C[C@@H](OC(=O)/C(=C/CO)CO)[C@@H]12 | 1.2 to 1.4 | 11.1 | 15.5
COc1cc(CCCO)cc(O)c1OC | 9.8 | 15.2 | 149
C=C1C(=O)O[C@H]2[C@H]1[C@H](OC(=O)/C(=C/CO)CO)CC(=C)[C@@H]1CC(=O)C(C)[C@H]21 (stereo not given in full) | 0.6 | 19.2 | 12.3
C=C1C(=O)O[C@@H]2/C=C(/C)[C@@H](OC(C)=O)C/C=C(\C)C[C@@H](OC(=O)/C(C)=C/CO)[C@@H]12 | 1.7 | 4.6 | 7.94
C=C1C(=O)O[C@@H]2/C=C(/C)[C@@H](OC(C)=O)C/C=C(\C)C[C@@H](OC(=O)C3=CC(O)OC3)[C@@H]12 (stereo not given in full) | 0.35 | 11.5 | 4.1
COc1ccc(-c2cc(=O)c3c(O)c(OC)c(O)cc3o2)cc1 [PECTOLINARIGENIN] | 6.1 | 3.3 | 20.2
C=C1C(=O)O[C@@H]2C3O[C@]3(C)CC/C=C(\C)CC[C@@H]12 (stereo not given in full) | 0.39 | 18.6 | 7.2
C=C1C[C@@H](OC(=O)/C(=C/CO)CO)[C@H]2C(=C)C(=O)O[C@@H]2[C@H]2C(C)=C[C@@H](O)[C@@H]12 | 7.3 | 5.9 | 42.8
C=C1C(=O)O[C@@H]2/C=C(/C)[C@@H](OC(C)=O)C/C=C(\C)C[C@@H](OC(=O)c3ccoc3)[C@@H]12 | 0.1 | 20.5 | 2.1

Now from value to molecule, other results behind:

IC50 [2] [µM] | Compound | selectivity ratio [1] | IC50 [3] [µM]
2.7 | C=C1C(=O)O[C@H]2[C@H]1[C@H](OC(=O)/C(=C/COC(=O)C(O)C(C)C)CO)C[C@]1(C)[C@@H]2[C@H](C)C(=O)C[C@H]1O (stereo not given in full) | 14.6 | 39.7
0.13 | C=C1C(=O)O[C@@H]2/C=C(/C)[C@@H](OC(=O)C(O)C(C)C)C/C=C(\C)C[C@@H](OC(=O)c3ccoc3)[C@@H]12 (stereo not given in full) | 29.7 | 3.9
0.91 | C=C1C(=O)O[C@@H]2/C=C(/C)[C@@H](O)C[C@H]3O[C@]3(C)C[C@@H](OC(=O)/C(=C/COC(=O)C(O)C(C)C)CO)[C@@H]12 (stereo not given in full) | 15.8 | 14.4
5.4 | C=C1C(=O)O[C@@H]2/C=C(\C)[C@@H](O)C/C=C(\C)C[C@@H](OC(=O)/C(C)=C/CO)[C@@H]12 | 9.6 | 51.7
4 | C=C1C(=O)O[C@@H]2/C=C(\C)[C@@H](O)C/C=C(\C)C[C@@H](OC(=O)/C(=C/COC(=O)C(O)C(C)CC)CO)[C@@H]12 (stereo not given in full) | 10.5 | 42.3
0.9 | C=C1C(=O)O[C@@H]2/C=C(/C)[C@@H]3C/C=C(/C[C@@H](OC(=O)/C(=C/CO)CO)[C@@H]12)C[C@@](O)(C(C)C)C(=O)O3 | 4.1 | 3.8
1.1 | C=C1C(=O)O[C@@H]2/C=C(/C)[C@@H](OC(C)=O)C/C=C(\C)C[C@@H](OC(=O)/C(=C/CO)CO)[C@@H]12 | 6.9 | 7.8
1.7 | C=C1C(=O)O[C@@H]2/C=C(/C)[C@@H](OC(C)=O)C/C=C(\C)C[C@@H](OC(=O)/C(=C\CO)CO)[C@@H]12 | 31.1 | 54.6
2.6 | C=C1C(=O)O[C@@H]2/C=C(\C)[C@@H](O)C/C=C(\C)C[C@@H](OC(=O)/C(=C/COC(=O)C(O)C(C)C)CO)[C@@H]12 (stereo not given in full) | 13 | 34.1
0.82 | C=C1C(=O)O[C@@H]2/C=C(/C)[C@@H](OC(=O)C(O)C(C)C)C/C=C(\C)C[C@@H](OC(=O)/C(=C/CO)CO)[C@@H]12 (stereo not given in full) | 13.4 | 11
0.92 | C=C1C(=O)O[C@@H]2/C=C(/C)[C@@H](OC(C)=O)C[C@H]3O[C@]3(C)C[C@@H](OC(=O)/C(=C/CO)CO)[C@@H]12 | 15.8 | 14.6
